Measurements published in patent publication US6342508B1, “N-hydroxy-2-(Alkyl,Aryl or Heteroaryl sulfanyl, sulfinyl or sulfonyl) 3-substituted alkyl, aryl or heteroarylamides as matrix metalloproteinase inhibitors” (American Cyanamid Company, priority 1997, dated 2002).

Columns and labels:
TACE = target: T1, TACE (Homo sapiens, UniProt P78536); experiment: Procedure for Measuring TACE Inhibition (fluorescent peptidyl substrate); assay type: biochemical
T1 construct: purchased Immunex
Procedure: Using 96-well black microtiter plates, each well recieves a solution composed of 10 μL TACE (Immunex, final concentration 1 μg/mL), 70 μL Tris buffer, pH 7.4 containing 10% glycerol (final concentration 10 mM), and 10 μL of test compound solution in DMSO (final concentration, DMSO concentration <1%) and incubated for 10 minutes at room temperature. The reaction is initiated by addition of a fluorescent peptidyl substrate (final concentration 100 μM) to each well and then shaking on a shaker for 5 sec. The reaction is read (excitation 340 nm, emission 420 nm) for 10 min. and the increase in fluorescence over time is plotted as a linear line. The slope of the line is calculated and represents the reaction rate. […] The mean (x±sem) of the control rate is calculated and compared for statistical significance (p<0.05) with drug-treated rates using Dunnett's multiple comparison test.

MMP 13 = MMP 13 (Homo sapiens, UniProt P45452); experiment: MMP 13 inhibition (HTS); assay type: biochemical
MMP 1 = target: T2, MMP 1 (Homo sapiens, UniProt P03956); experiment: In Vitro Collagenase Assay (human recombinant fibroblast collagenase, fluorogenic peptide substrate); assay type: biochemical; details: read-out: MMP 1 IC 50
T2 construct: human recombinant fibroblast collagenase (truncated mw=18,828, WAR, Radnor)
T2 sequence (P03956 100-269 limits assumed): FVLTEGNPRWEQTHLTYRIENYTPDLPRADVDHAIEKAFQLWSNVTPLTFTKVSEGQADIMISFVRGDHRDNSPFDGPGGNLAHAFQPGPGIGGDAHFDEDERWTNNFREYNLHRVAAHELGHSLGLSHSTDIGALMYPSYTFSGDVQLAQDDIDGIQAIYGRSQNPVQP
Procedure: The assay is based on the cleavage of a peptide substrate ((Dnp-Pro-Cha-Gly-Cys(Me)-His-Ala-Lys(NMa)-NH2), Peptide International Inc.) by collagenase releasing the fluorescent NMa group which is quantitated on the fluorometer. Dnp quenches the NMa fluorescence in the intact substrate. […] Substrate is dissolved in methanol and stored frozen in 1 mM aliquots. […] For the assay, substrate is dissolved in HCBC buffer to a final concentration of 10 μM and collagenase to a final concentration of 5 nM. Compounds are dissolved in methanol, DMSO, or HCBC. The methanol and DMSO are diluted in HCBC to <1.0%. Compounds are added to the 96 well plate containing enzyme and the reaction is started by the addition of substrate.
The slope of the line is calculated and represents the reaction rate.
The mean (x±sem) of the control rate is calculated and compared for statistical significance (p<0.05) with drug-related rates using Dunnett's multiple comparison test.

MMP 9 = target: T3, MMP 9 (Homo sapiens, UniProt P14780); experiment: In Vitro Gelatinase Assay (human neutrophil gelatinase B, thiopeptide substrate/DTNB); assay type: biochemical; details: read-out: MMP 9 IC 50
T3 construct: from tissue; host or cells: human neutrophils
Procedure: The assay is based on the cleavage of the thiopeptide substrate ((Ac-Pro-Leu-Gly(2 Mercapto-4 methyl-pentanoyl)-Leu-Gly-OEt), Bachem Bioscience) by the enzyme, gelatinase, releasing the substrate product which reacts colorimetrically with DTNB ((5,5′-dithio-bis(2-nitro-benzoic acid)). The enzyne activity is measured by the rate of the color increase. The thiopeptide substrate is made up fresh as a 20 mM stock in 100% DMSO and the DTNB is dissolved in 100% DMSO as a 100 mM stock and stored in dark at room temperature. Both the substrate and DTNB are diluted together to 1 mM with substrate buffer (50 mM HEPES pH 7.5, 5 mM CaCl2) before use.
The increase in OD405 is plotted and the slope of the line is calculated which represents the reaction rate.
The mean (x±sem) of the control rate is calculated and compared for statistical significance (p<0.05) with drug-treated rates using Dunnett's multiple comparison test.

T1 sequence (P78536 215-824): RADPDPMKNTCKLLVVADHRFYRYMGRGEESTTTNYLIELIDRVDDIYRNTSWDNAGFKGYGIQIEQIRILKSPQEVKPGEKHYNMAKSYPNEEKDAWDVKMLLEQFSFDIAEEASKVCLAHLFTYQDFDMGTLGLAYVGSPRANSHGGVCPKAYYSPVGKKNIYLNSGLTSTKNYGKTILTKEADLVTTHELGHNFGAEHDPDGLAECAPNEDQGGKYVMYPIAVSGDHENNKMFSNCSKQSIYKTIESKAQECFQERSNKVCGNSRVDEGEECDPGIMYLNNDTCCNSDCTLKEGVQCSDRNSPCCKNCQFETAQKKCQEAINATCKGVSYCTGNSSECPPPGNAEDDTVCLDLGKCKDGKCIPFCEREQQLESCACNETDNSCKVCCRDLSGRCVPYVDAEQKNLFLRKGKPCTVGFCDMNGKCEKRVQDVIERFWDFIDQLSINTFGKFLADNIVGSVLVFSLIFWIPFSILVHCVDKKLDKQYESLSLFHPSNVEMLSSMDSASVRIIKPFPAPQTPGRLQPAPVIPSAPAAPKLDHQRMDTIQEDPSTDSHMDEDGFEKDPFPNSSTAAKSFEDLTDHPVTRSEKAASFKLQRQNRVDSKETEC
T3 sequence (P14780 94-707): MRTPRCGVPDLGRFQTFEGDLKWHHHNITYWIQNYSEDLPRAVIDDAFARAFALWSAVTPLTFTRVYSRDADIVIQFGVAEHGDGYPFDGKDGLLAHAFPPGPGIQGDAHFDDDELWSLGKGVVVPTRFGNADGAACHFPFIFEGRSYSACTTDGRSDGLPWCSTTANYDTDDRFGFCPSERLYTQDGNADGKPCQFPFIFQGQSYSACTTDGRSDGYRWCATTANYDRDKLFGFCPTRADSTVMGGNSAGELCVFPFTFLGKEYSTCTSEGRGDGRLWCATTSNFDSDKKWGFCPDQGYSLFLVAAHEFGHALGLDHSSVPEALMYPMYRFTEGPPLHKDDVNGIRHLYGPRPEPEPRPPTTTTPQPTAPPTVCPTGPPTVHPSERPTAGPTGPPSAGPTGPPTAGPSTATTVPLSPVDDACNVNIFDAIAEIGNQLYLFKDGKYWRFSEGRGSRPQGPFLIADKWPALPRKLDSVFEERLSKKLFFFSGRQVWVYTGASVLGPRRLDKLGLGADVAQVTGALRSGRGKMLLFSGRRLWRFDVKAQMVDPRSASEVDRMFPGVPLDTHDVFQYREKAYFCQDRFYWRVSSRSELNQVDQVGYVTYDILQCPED

Molecule | TACE % inhibition at 1 mM (TACE) [%] | MMP 13 % inhibition at 0.2 μM (HTS) (MMP 13) [%] | MMP 13 % inhibition at 36 nM (HTS) (MMP 13) [%] | further results
O=C(CCC(Sc1ccccc1C(F)(F)F)C(=O)NO)NO (centres unmarked) [Example 137, 4-Hydroxycarbamoyl-4-(2-trifluoromethyl-benzenesulfanyl)-butyric acid hydroxyamide] | 13.35 | 83 | – | –
3-Bromo-2-chloro-thiophene-2-sulfonic acid 4-(1-hydroxycarbamoyl-heptylsulfonyl)-hydroxyamide [Example 239] | 45.9 | – | 54 | –
COc1ccc(CS(=O)(=O)C(C)(Cc2ccccc2)C(=O)NO)cc1 (centres unmarked) [Example 41, N-Hydroxy-2-(4-methoxy-phenylmethanesulfonyl)-2-methyl-3-phenyl propionic acid hydroxamide] | – | – | – | IC50 (MMP 1): 100 nM; inhibition at 1 µM (TACE; read-out: TACE % inhibition at 1 micromolar): 15.5%; melting point: 58 to 59 °C
CCCCCCC(C(=O)NO)S(=O)(=O)c1ccc(NS(=O)(=O)c2cccc3nsnc23)cc1 (centres unmarked) [Example 240, Benzo[1,2,5]thiadiazole-4-sulfonic acid 4-(1-hydrxycarbamoyl-heptylsulfonyl)-hydroxyamide] | 40.3 | – | 48 | –
N-Hydroxy-3-methyl-2-phenethylsulfinyl-butyramide [Example 117] | 8.1 | 7 | – | –
CCCCCCCCC(C(=O)NO)S(=O)(=O)c1ccc(S(C)(=O)=O)cc1 (centres unmarked) [Example 145, 2-(4-methanesulfonyl-benzenesulfonyl)decanoic acid hydroxamide] | – | 45 | – | –
CCCCCCCCC(C(=O)NO)[S+]([O-])c1cccc(OC)c1 (centres unmarked) [Example 141, 2-(3-Methoxy-benzenesulfinyl)decanoic acid hydroxamide] | – | 32 | – | –
CCCCCCCCC(Sc1cccc(OC)c1)C(=O)NO (centres unmarked) [Example 140, 2-(3-methoxy-benzenesulfanyl)decanoic acid hydroxamide] | – | 29 | – | –
CCCCCCC(Sc1ccc(NS(=O)(=O)c2cc(Cl)sc2Cl)cc1)C(=O)NO (centres unmarked) [Example 233] | 19.8 | – | 33 | –
CCCCCCC(Sc1ccc(OC)c(OC)c1)C(=O)NO (centres unmarked) [Example 165, 2-(3,4-Dimethoxybenzenesulfanyl)-octanoic acid hydroxyamide] | – | 71 | – | –
3-(1-Hydroxycarbamoyl-heptylsulfanyl)-benzoic acid hydroxyamide [Example 184] | 24.8 | – | 16 | –
CCCCCCC(Sc1nc2ccccc2[nH]1)C(=O)NO (centres unmarked) [Example 168, 2-(2-Benzimidazol-2-ylsulfanyl)-octanoic acid hydroxyamide] | – | 21 | – | –
CCCCCCC(C(=O)NO)[S+]([O-])c1ccc(NS(=O)(=O)c2ccc(-c3ccccn3)s2)cc1 (centres unmarked) [Example 237, 5-Pyridin-2-yl-thiophene-2-sulfonic acid 4(1-hydroxycarbamoyl-heptylsulfinyl)-hydroxy amide] | 38.2 | – | 55 | –
CCCCCCC(Sc1nc(-c2ccccc2)cs1)C(=O)NO (centres unmarked) [Example 172, 2-(4-Phenyl-thiazole-2-sulfanyl)-octanoic acid hydroxyamide] | 29.4 | – | 34 | –
CCCCCCC(Sc1nc2ccccc2s1)C(=O)NO (centres unmarked) [Example 170, 2-(2-Benzothiazol-2-ylsulfanyl)-octanoic acid hydroxyamide] | – | – | 32 | –
CCCCCCC(C(=O)NO)[S+]([O-])c1ccc(NS(=O)(=O)c2c(C)nn(C)c2Cl)cc1 (centres unmarked) [Example 235, 5-Chloro-1,3-dimethyl-1H-pyrazole-4-sulfonic acid 4-(1-hydroxycarbamoyl-heptylsulfinyl)-hydroxyamide] | 48.3 | – | 59 | –

Molecule | TACE % inhibition at 1 mM (TACE) [%] | MMP 13 % inhibition at 0.2 μM (HTS) (MMP 13) [%] | MMP 13 % inhibition at 36 nM (HTS) (MMP 13) [%] | further results
N=C(N)NCCCC(C(=O)NO)[S+]([O-])c1ccccc1Br (centres unmarked) [Example 158, 2-(2-Bromosulfinyl)-5-guanidino-pentanoic acid hydroxyamide] | – | 33 | – | –
CCCCCCC(C(=O)NO)S(=O)(=O)CCc1cccc[n+]1[O-] (centres unmarked) [Example 183, 2-[2-(1-Oxy-pyridin-2-yl)-ethanesulfonyl]-octanoic acid hydroxyamide] | – | – | −6 | –
O=C(NO)C(Cc1cnc[nH]1)Sc1ccccc1Br (centres unmarked) [Example 152, 2-(2-bromo-benzenesulfanyl)-N-hydroxy-3-(3H-imidazol-4-yl)-propionamide] | – | 9 | – | –
COc1ccc(S(=O)(=O)C2(C(=O)NO)CCN(Cc3ccc4ccccc4c3)CC2)cc1 [Example 87, 4-(4methoxy-benzene-sulfonyl)-1-napthalene-2-yl-methylpiperidine-4-carboxylic acid hydroxamide] | – | – | – | IC50 (MMP 1): 368 nM; IC50 (MMP 9): 5 nM; melting point: 168 to 170 °C
CCCCCCC(Sc1ccc(OCc2ccccc2)cc1)C(=O)NO (centres unmarked) [Example 199, 2-(^4-Benzyloxy-phenylsulfanyl)-octanoic acid hydroxyamide] | – | – | −10 | –
CCC(SCC(=O)OC)C(=O)NO (centres unmarked) [Example 119, (1-Hydroxycarbamoyl-propane-1-sulfanyl)-acetic acid methyl ester] | 7.8 | 0 | – | –
O=C(CCC(Sc1ccc(Br)cc1)C(=O)NO)NO (centres unmarked) [Example 134, 4-Hydroxycarbamoyl-4-(4-bromo-benzenesulfanyl)-butyric acid hydroxyamide] | −9.31 | 25 | – | –
COc1ccc(SC(C)C(=O)NO)cc1 (centres unmarked) [Example 111, N-Hydroxy-2-(4-methoxy-benzenesulfanyl)-propionamide] | 40.4 | 10 | – | –
CC(C)CCSC(C)C(=O)NO (centres unmarked) [Example 112, N-Hydroxy-2-(3-methyl-butane-1-sulfanyl)-propionamide] | 33.7 | 50 | – | –
CCCCCCC(Sc1cc(Cl)ccc1Cl)C(=O)NO (centres unmarked) [Example 160, 2-(2,5-dichlorobenzenesulfanyl)-octanoic Acid Hydroxyamide] | – | 14 | – | –
N=C(N)NCCCC(Sc1ccccc1Br)C(=O)NO (centres unmarked) [Example 157, 2-(2-Bromosulfanyl)-5-guanidino-pentanoic acid hydroxyamide] | – | 19 | – | –
COc1ccc(S(=O)(=O)C2(C(=O)NO)CCN(Cc3ccc(-c4ccccc4)cc3)CC2)cc1 [Example 88, 1-Biphenyl-4-ylmethyl-4-(4-methoxy-benzenesulfonyl)-piperidine-4-carboxylic acid hydroxamide] | – | – | – | IC50 (MMP 1): 1330 nM; IC50 (MMP 9): 12.8 nM
CCCCCCC(Sc1nc2ccccc2o1)C(=O)NO (centres unmarked) [Example 169, 2-(2-Benzooxazol-2-ylsulfanyl)-octanoic acid hydroxyamide] | – | – | 28 | –
CCCCCCC(Sc1cccc(OC)c1)C(=O)NO (centres unmarked) [Example 162, 2-(3-Methoxybenzenesulfanyl)-octanoic acid hydroxyamide] | – | 13 | – | –
COC(=O)CCC(Sc1ccc(SC)cc1)C(=O)NO (centres unmarked) [Example 131, 4-Hydroxycarbamoyl-4-(4-methanesulfanyl-phenylsulfanyl)-butyric acid methyl ester] | – | 71 | – | –
CCCCCCCCC(C(=O)NO)S(=O)(=O)c1cccc(OC)c1 (centres unmarked) [Example 142, 2-(3-Methoxy-benzenesulfonyl)decanoic acid hydroxamide] | – | 69 | – | –
